As a reminder, the GI50 is the concentration that inhibits growth by half. A word on the TGI: it is the concentration giving total growth inhibition. Low readings indicate more potent growth arrest, high ones less potent growth arrest.

The results in this text go back to PubChem BioAssay (NCI).

Each structure is given as a SMILES string. Where “and” joins values, the source holds several entries; their conditions need not be identical. Equal entries are not always repeated.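 How tested: cells in 96-well plates exposed to compound for 48 hours at five concentrations. GI50: concentration for 50% inhibition of growth. At the TGI there is no net growth.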 Some results are limits rather than exact numbers.

Holding throughout (assay): DTP human tumour cell line panel, 48 h
In test [1] the test system is A498 renal.
Test [2] concerns HCT-15 colon.
Test [3] deals with HOP-62 NSCLC.
Test [4] deals with HT29 colon.
Test [5] relates to RPMI-8226 leukemia.
Test [6] concerns SN12C renal.
Test [7] has as its system SR leukemia.
Test [8] deals with UACC-62 melanoma.

On to `COc1cc2c(cc1Cc1cccc(Cl)c1F)c(=O)c(C(=O)O)cn2[C@@H](CO)C(C)C`, for which the GI50 in test [1] was 2260 nM; in test [2] it was 3.64 µM; in test [3] it was 5.22 µM; in test [4], 2620 nM; in test [5], 3360 nM; in test [6] it was 3.06 µM. The GI50 in test [7] was 3540 nM; in test [8], 2740 nM. Moreover, the TGI in test [1] came to 14.2 µM; in test [2], 14.4 µM; in test [3] it was 18.6 µM; in test [4], 5.56 µM; in test [5] it was 12.5 µM; in test [6], 13.7 µM. In addition, the TGI in test [7] came out at 13.8 µM; in test [8] it was 10.1 µM.

Regarding `Cc1ccc2c(c1)c(Sc1ccc(C(=O)NO)cc1)c1n2CN(C)CC1`, the GI50 in test [1] is 191 nM; in test [2] it was 3.65 µM; in test [3] it was 1.61 µM; in test [4], 2530 nM; in test [5], 1100 nM; in test [6] it was 2.28 µM. For the same compound, the GI50 is 2690 nM in test [7] and 1510 nM in test [8]. Besides, the TGI in test [1] is 2.16 µM; in test [2], 13.6 µM; in test [3], 3.83 µM; in test [4] it was 8.38 µM; in test [5] it was 9.86 µM; in test [6], 6.79 µM. Moreover, the TGI in test [7] is 8.93 µM; in test [8], 3.25 µM.

Turning to `COc1ccc(Cn2cc3c(c2-c2ccccc2)CCc2cnoc2-3)cc1OC`, the GI50 in test [1] was 253 nM; in test [2] it was 0.522 µM; in test [3], 1.34 µM; in test [4] it was 387 nM; in test [5], 3160 nM; in test [6] it was 5.16 µM. The GI50 is 353 nM in test [7] and 581 nM in test [8]. Moreover, the TGI is 3.27 µM in test [1]; over 100 µM in test [2]; over 100 µM in test [3]; over 100 µM in test [4]; over 100 µM in test [5]; over 100 µM in test [6]. Moreover, the TGI in test [7] and in test [8] was over 100 µM in each case.

On to `CC/C(=C(/c1ccc(O)cc1)c1ccc(OCCN)cc1)c1ccccc1`, for which the GI50 was 2490 nM in test [1]; 1.91 µM in test [2]; 3.3 µM in test [3]; 2490 nM in test [4]; 2370 nM in test [5]; 3.02 µM in test [6]. Moreover, the GI50 in test [7] is 1780 nM; in test [8] it was 2440 nM. In addition, the TGI in test [1] is 16.8 µM; in test [2], 4.06 µM; in test [3], 10.7 µM; in test [4] it was 5.78 µM; in test [5] it was 5.65 µM; in test [6], 9.67 µM. The TGI in test [7] was 4.53 µM; in test [8], 7.43 µM.

`N#Cc1c(N)n2c(nc1=Nc1ccc(Cl)cc1)sc1cc(Cl)ccc12`: the GI50 in test [1] was 5240 nM and 1200 nM; in test [2] it was 5.47 µM; in test [3] it was 4.6 µM; in test [4], 5670 nM and 3770 nM; in test [5], 1260 nM; in test [6], 33.5 µM. Further, the results for the GI50 in test [7] and in test [8] were 2260 nM and 2850 nM, respectively. In addition, the TGI was 9.62 µM in test [1]; over 100 µM in test [2]; 30.1 µM in test [3]; over 100 µM in test [4]; 9.27 µM in test [5]; over 100 µM in test [6]. The TGI in test [7] and in test [8] was over 100 µM throughout.

Turning to `C=C1C(=O)O[C@H]2C[C@@H]1CC/C(C)=C/CC/C(C)=C/CC[C@@]2(C)O`, the GI50 is 43800 nM in test [1]; 26.4 µM in test [2]; over 100 µM in test [3]; 34600 nM in test [4]; 20400 nM in test [5]; 24.9 µM in test [6]. The GI50 in test [7] is 26500 nM; in test [8] it was 44100 nM. The TGI in test [1] was over 100 µM; in test [2], 71.6 µM; in test [3] it was over 100 µM; in test [4] it was over 100 µM; in test [5], 43.5 µM; in test [6], 65.7 µM. Also, the TGI in test [7] was 63.6 µM; in test [8], over 100 µM.

On to `Cc1nc(-c2nc(-c3ccc(OC(F)(F)F)cc3)no2)nn1Cc1cccc(N2CCC(S(C)(=O)=O)CC2)c1`, for which the GI50 in test [1] was under 19.8 nM; in test [2] it was over 21.7 µM; in test [3], over 33.1 µM; in test [4] it was over 25000 nM; in test [6] it was over 31.1 µM; in test [7], 397 nM. Moreover, the GI50 in test [8] was 3510 nM. Further, the total growth inhibition concentration (TGI) was 17.1 µM in test [1]; over 100 µM in test [2]; over 100 µM in test [3]; over 100 µM in test [4]; over 100 µM in test [5]; over 100 µM in test [6]. Further, the TGI was 97.9 µM in test [7] and over 100 µM in test [8].

`CC[C@@H](C(=O)[C@H](C)[C@H](O)[C@@H](C)[C@H]1O[C@H]([C@@H](CC)C(=O)N(CC)CC)CC[C@H]1C)C1O[C@]2(C=C[C@@H](O)[C@]3(CC[C@@](C)([C@H]4CC[C@](O)(CC)[C@H](C)O4)O3)O2)[C@H](C)C[C@@H]1C` (some centres not stated): the GI50 in test [1] was 2440 nM; in test [2], 2.64 µM; in test [3] it was 4.33 µM; in test [4], 3340 nM; in test [5], 2050 nM; in test [6] it was 2.75 µM. Also, the GI50 is 2910 nM in test [7] and 2430 nM in test [8]. For the same compound, the TGI was determined as 8.21 µM in test [1]; 8.28 µM in test [2]; 19.5 µM in test [3]; 15.6 µM in test [4]; 6.15 µM in test [5]; 10.1 µM in test [6]. The TGI in test [7] was 13.6 µM; in test [8], 10.8 µM.

Regarding `CCN1C(=O)N(CC)C2C1NN=c1s/c(=C\c3ccco3)c(=O)n12` (configuration not stated), the GI50 in test [1] is 390 nM; in test [2], 0.481 µM; in test [3] it was 0.722 µM; in test [4], 361 nM; in test [5], 438 nM; in test [6], 0.941 µM. The values for the GI50 in test [7] and in test [8] were 196 nM and 446 nM, respectively. For the same compound, the TGI in test [2], in test [3], in test [4], in test [5], in test [6] and in test [7] was over 100 µM throughout. Further, the TGI in test [8] is over 100 µM.
